Laboratory results from US20250108051A1, “THERAPEUTIC AGENT FOR CANCER” (TOHOKU UNIVERSITY, priority 2022, published 2025).

Test system: cleaved PARP in RKO cell line
Test: Western blot of cleaved PARP under RARα or RXRα knockdown
Format: cell-based
Protocol: To the collected cells were added Radioimmunoprecipitation assay buffer (composition: 50 mM Tris-HCL, pH 8.0, 150 mM Sodium Chloride, 0.5 w/v % Sodium Deoxycholate, 0.1 w/v % Sodium Dodecyl Sulfate, 1.0 w/v % NP-40 substitute) supplemented with Halt Protease Inhibitor Cocktail (Thermo Fisher Scientific Inc.), followed by dissolving the cells, and a protein was extracted. The extracted protein was quantified by a bicinchoninic acid method. A protein sample in an amount of 5 μg was separated by polyacrylamide electrophoresis, and the separated protein sample was transferred to Polyvinylidene difluoride membrane (PVDF membrane, Merck Millipore Ltd.), followed by blocking with Odyssey Blocking Buffer (Licor Inc.) for 1 hour at room temperature. Thereafter, the PVDF membrane after transfer was immersed in a primary antibody solution, followed by culturing at room temperature for 2 hours or at 4° C. overnight. After the primary antibody reaction, the PVDF membrane was washed with Tris Buffered Saline with Tween 20 (TBS-T) for 5 minutes at room temperature for three times and immersed in a secondary antibody, followed by incubating at room temperature for 1 hour. As the secondary antibody, Goat anti-Rabbit IgG (H+L) Highly Cross-Adsorbed Secondary Antibody Alexa Fluor680 (Thermo Fisher Scientific Inc.) and Goat anti-Mouse IgG (H+L) Highly Cross-Adsorbed Secondary Antibody Alexa Fluor680 (Thermo Fisher Scientific Inc.) were used at a dilution ratio of 1:1000. Thereafter, washing with TBS-T for 5 minutes was performed three times, and a measurement of signals was performed using an Odyssey Infrared Imaging System (Licor Inc.). […] The above was performed three or more times as independent experiments. Student's test was used for a significant difference test.

CC1=C(/C=C/C(C)=C/C=C/C(C)=C/C(=O)O)C(C)(C)CCC1 [ATRA, all-trans retinoic acid]
enhancement by TRE of expression level of cleaved PARP caused by ENC+BIN (RARα inhibited): about 8 times
enhancement by TRE of expression level of cleaved PARP caused by ENC+BIN+CET (RARα inhibited): about 3 times
enhancement by TRE of expression level of cleaved PARP caused by ENC+BIN (RXRα inhibited): about 1.5 times
enhancement by TRE of expression level of cleaved PARP caused by ENC+BIN+CET (RXRα inhibited): about 2 times
enhancement by TRE of expression level of cleaved PARP caused by ENC+BIN (si-NC): about 13 times
enhancement by TRE of expression level of cleaved PARP caused by ENC+BIN+CET (si-NC): about 11 times
